The values below come from patent US20240307545A1, “CONJUGATE OF SAPONIN, OLIGONUCLEOTIDE AND GALNAC” (priority 2021, published 2024).

Where two headings read alike, the source gives them in different places. [BNANC] = BNA^NC bridged nucleic acid nucleotide; {ThiolC6} = thiol C6 linker; d = 2'-deoxy (DNA)

Data set [1] relates to LDL-cholesterol. Kind of data set: Serum LDL-cholesterol (LDL-C) analysis in C57BL/6J mice. The class given is in vivo. The procedure: (§1) • i. Dose administration and in-life phase. Per group, 8 C57BL/6J male mice for treatment groups (in Study A, 14 mice in vehicle control group), approximately 6-7 weeks at arrival and 8-9 weeks at dosing, were dosed. The compounds, formulated in PBS or PBS alone (vehicle) according to Table A5 and Table A6, were dosed at 5 ml/kg in the tail vain (intravenously, i.v.), with dose volumes corresponding to the individual bodyweights. Where applicable, trivalent (GalNAc)3-SO1861 (EMCH) was co-administered at 5 ml/kg in the tail vain (i.v.) right after the trivalent GalNAc-ApoB conjugate. Animals were weighed weekly and clinical observations were performed 2-3 times daily within the first 48 hrs, and at least once daily thereafter until study end. • ii. Sampling of serum, liver, and kidney tissue. […] At the relevant inter-study post-dose timepoints, 3 animals per timepoint per treatment group (6 animals in the vehicle control group in Study A) were sacrificed to collect terminal bleeds and collect relevant organs, such as liver and kidney tissues for further analyses. at end of study, the remaining 2 animals (4 in the control group in Study A) per group were sacrificed. One half of the liver and one kidney was frozen and used for tissue RNA analysis.
LDL-cholesterol was measured in mouse serum, using an LDL-cholesterol specific two-step AU480 assay kit, respectively, from Beckman Coulter, with a photometric measurement according to the manufacturer's instructions.

The nature of data set [2]: In vivo tolerability (clinical observations, body weight) in C57BL/6J mice. The conditions noted are these: Study A; doses and regimens of Table A5, i.v. The procedure: as §1
The subject of data set [3] is apoB. Kind of data set: ApoB expression analysis in liver tissue of C57BL/6J mice (qRT-PCR). The format is in vivo. The conditions noted are these: for reduction of apoB RNA levels (gene expression) in liver compared to vehicle / reduction of apoB expression in liver compared to vehicle: Study A; for reduction of apoB RNA levels (gene expression) in liver compared to vehicle: 24 hrs. The procedure:
as §1
The mRNA was isolated from frozen liver tissue using TRIzol® Reagent (Thermo Scientific) according to the manufacturer's instruction. Conversion into cDNA was performed using iScript™ cDNA Synthesis Kit (BioRad). ApoB expression levels and levels of specific liver housekeeping genes were determined using quantitative real-time PCR assays (qRT-PCR) using iTaq™ Universal SYBR® Green Supermix (BioRad) and the Light Cycler 480 (Roche Diagnostics, Rotkreuz, Switzerland) with specific DNA primers, listed in Table A4 (Study A) and Table A7 (Study B), respectively. Analysis was done by the ΔCt method to determine apoB expression relative to 2 liver-specific housekeeping control mRNAs. Each analysis reaction was performed in triplicate.

In data set [4] the test system is apoB. The experiment in a line: apoB mRNA expression in primary human hepatocytes (qPCR). The class given is cell-based. The following applies: for IC50: primary human hepatocytes, read-out: IC50 apoB RNA levels. The procedure:
(§2) Cryopreserved primary human hepatocytes (Cytes Biotechnologies S.L., Spain) were thawed in hepatocyte thawing media (Cytes Biotechnologies S.L., Spain). […] Cells were pre-cultured for 4-6 hrs at 37° C. allowing for cell attachment to cell culture plates before the start of treatment. Plating medium was replaced by 315 μl or 108 μl maintenance media (Cytes Biotechnologies S.L., Spain), after which conjugates were added from a 10× concentrated stock solution in PBS. Plates were incubated for 72 hr at 37° C. being harvested for gene expression and cell viability analysis.
as §2
For orientation: In qPCR the cycle at which signal appears reflects the starting amount.

Data set [5] in a line: Endosomal escape enhancing activity of saponin. The conditions noted are these: compared with SO1861.
For data set [6], the system named is apoB. The experiment in a line: apoB gene silencing in Huh7 cells (qPCR). The class given is cell-based, human. The conditions noted are these: hepatocytes with very low ASGPR1 expression (Huh7).
Description: Primary hepatocytes which highly express ASGPR1 (ASGPR1^high) and Huh7 hepatocyte cell line (low ASGPR1 expression) were treated with a concentration range of trivalent-GalNAc-ApoBBNA (TrivalentGalNAc-ApoBBNA), either in absence or presence of 300 nM trivalent-GalNAc-SO1861 (TrivalentGalNAc-SPT001) (FIGS. 20A and B).
In addition, the primary hepatocytes and the liver cells of cell line Huh7 were contacted with a concentration series of a saponin-oligonucleotide-ASGPR ligand conjugate, i.e. trivalent GalNAc conjugated with both SO1861 (DAR is 4, in a dendron with four SO1861 molecules) and ApoB BNA (SEQ ID NO: 2) ((GalNAc)3-dSPT4-ApoB (FIG. 20E), or TrivalentGalNAc-ApoBBNA-dendron(SO1861)4), and apoB mRNA expression was assessed (FIGS. 20A and B).
ApoB gene silencing in HepG2 (ASGPR1+) cells or Huh7 (ASGPR1^+/−) was determined.
RNA from cells was isolated and analysed according to standard protocols (Biorad). qPCR primers that were used are indicated in Table A2.
RNA from cells was isolated using TRI Reagent® Solution (Thermo Scientific) according to the manufacturer's instruction. Conversion into cDNA was performed using iScript™ cDNA Synthesis Kit (BioRad) using standard protocols. […]

Turning to “ApoB#02 BNA: BNA^NC antisense oligonucleotide 5′-GCattggtatTCA-3′ [SEQ ID NO: 12], fully phosphorothioated, 5′-Thiol C6 linker (GCATTGGTATTCA; sugars from the 5' end [BNANC]2 d8 [BNANC]3, all phosphorothioate, 5' {ThiolC6}, methylation of C not given here)”, the “reduction of serum LDL-C compared to vehicle” value was approximately 50% in data set [1] (Study A, 2 mg/kg, 72 hrs) and approximately 40% in data set [1] (Study A, 2 mg/kg, 336 hrs). Moreover, in data set [1] (Study A, 0.1, 1, or 2 mg/kg, 24 hrs), the “serum LDL-C levels compared to vehicle (in words)” value was “not noticeably reduced”. The “serum LDL-C level” value in data set [1] (Study B, 2 mg/kg, 72 hrs post-dose) was 2 mg/dL. In addition, the “tolerability (adverse findings, clinical observations)” value in data set [2] is listed as “well tolerated”. In addition, the “reduction of apoB RNA levels (gene expression) in liver compared to vehicle” value in data set [3] (0.1 mg/kg i.v.) was “not noticeably reduced”; in data set [3] (1 mg/kg i.v.), approximately 15%; in data set [3] (2 mg/kg i.v.), approximately 21%. The “reduction of apoB expression in liver compared to vehicle” value in data set [3] (2 mg/kg, 72 hrs) was 39%; in data set [3] (2 mg/kg, 336 hrs) it was 30%. The “apoB RNA levels (gene expression) in liver, % of vehicle control” value in data set [3] (Study B, 2 mg/kg, 72 hrs) is 53%. In addition, the IC50 was found to be 400 nM in data set [4] (relative ApoB#02 BNA concentration, without transfection agent) and 8 nM in data set [4] (transfection with RNAi-MAX).
Consider `CC(=O)OC1C(C)OC(OC2C(C)OC(OC(=O)[C@]34CCC(C)(C)CC3C3=CCC5[C@@]6(C)CC[C@H](OC7OC(C(=O)O)C(O)C(OC8OCC(O)C(O)C8O)C7OC7OC(CO)C(O)C(O)C7O)[C@@](C)(C=O)C6CC[C@@]5(C)[C@]3(C)C[C@H]4O)C(OC3OC(C)C(OC4OCC(O)C(OC5OCC(O)C(O)C5O)C4O)C(O)C3O)C2O)C(O)C1OC1OCC(O)C(O)C1O` (some centres unmarked) [SO1832], for which, in data set [5], the “endosomal escape enhancing activity towards an oligonucleotide (or protein toxin) in the endosome” value is on record as “about equally active as SO1861”.
On to “TrivalentGalNAc-ApoBBNA: conjugate of trivalent GalNAc and the ApoB antisense BNA oligonucleotide ApoBBNA (SEQ ID NO: 2); L or S linker not stated (GCCTCAGTCTGCTTCGCACC; BNA oligonucleotide conjugated to trivalent GalNAc, pattern not explicitly stated, further chemistry not given here)”, for which, in data set [6] (low nM + trivalentGalNAc-SPT001), the “response: apoB mRNA silencing” value is “not responsive”.
As to “(GalNAc)3-dSPT4-ApoB: trivalent GalNAc conjugated with a dendron with four SO1861 moieties and ApoB BNA (SEQ ID NO: 2) via trifunctional linker (GCCTCAGTCTGCTTCGCACC; BNA oligo conjugated to trivalent GalNAc and dendron of four SO1861 saponins, further chemistry not given here)”, the “apoB gene (mRNA) silencing potency, factor higher than the GalNAc-ApoB BNA conjugate lacking covalently linked saponin” value in data set [4] (primary hepatocytes, concentration series) is reported as approximately 100. In data set [6] (low nM, conjugate alone), the “response: apoB mRNA silencing” value is on record as “not responsive”.

The IC50 is the concentration that inhibits the measured activity by half.
